# Results: article PMC5762315, “Inhibition of polo-like kinase 4 (PLK4): a new therapeutic option for rhabdoid tumors and pediatric medulloblastoma” (Oncotarget, 2017)
# Where “and” joins values, the source holds several entries; their conditions need not be identical. Identical values can stand only once.
# Tests used:
# Assay in all cases: LanthaScreen Eu Kinase Binding Assay, panel of 486 biochemical kinase assays
# various kinases [1] = target: various kinases (Homo sapiens, UniProt P11362, V561M); details: FGFR1 V561M
# various kinases [2] = target: various kinases (Homo sapiens, UniProt Q9Y2U5); details: MAP3K2 (MEKK2)
# various kinases [3] = target: various kinases (Homo sapiens, UniProt P07949, V804M); details: kinase RET V804M; LanthaScreen Binding
# various kinases (Homo sapiens, UniProt P07949, V804M), sequence (P07949 29-1114 V804M): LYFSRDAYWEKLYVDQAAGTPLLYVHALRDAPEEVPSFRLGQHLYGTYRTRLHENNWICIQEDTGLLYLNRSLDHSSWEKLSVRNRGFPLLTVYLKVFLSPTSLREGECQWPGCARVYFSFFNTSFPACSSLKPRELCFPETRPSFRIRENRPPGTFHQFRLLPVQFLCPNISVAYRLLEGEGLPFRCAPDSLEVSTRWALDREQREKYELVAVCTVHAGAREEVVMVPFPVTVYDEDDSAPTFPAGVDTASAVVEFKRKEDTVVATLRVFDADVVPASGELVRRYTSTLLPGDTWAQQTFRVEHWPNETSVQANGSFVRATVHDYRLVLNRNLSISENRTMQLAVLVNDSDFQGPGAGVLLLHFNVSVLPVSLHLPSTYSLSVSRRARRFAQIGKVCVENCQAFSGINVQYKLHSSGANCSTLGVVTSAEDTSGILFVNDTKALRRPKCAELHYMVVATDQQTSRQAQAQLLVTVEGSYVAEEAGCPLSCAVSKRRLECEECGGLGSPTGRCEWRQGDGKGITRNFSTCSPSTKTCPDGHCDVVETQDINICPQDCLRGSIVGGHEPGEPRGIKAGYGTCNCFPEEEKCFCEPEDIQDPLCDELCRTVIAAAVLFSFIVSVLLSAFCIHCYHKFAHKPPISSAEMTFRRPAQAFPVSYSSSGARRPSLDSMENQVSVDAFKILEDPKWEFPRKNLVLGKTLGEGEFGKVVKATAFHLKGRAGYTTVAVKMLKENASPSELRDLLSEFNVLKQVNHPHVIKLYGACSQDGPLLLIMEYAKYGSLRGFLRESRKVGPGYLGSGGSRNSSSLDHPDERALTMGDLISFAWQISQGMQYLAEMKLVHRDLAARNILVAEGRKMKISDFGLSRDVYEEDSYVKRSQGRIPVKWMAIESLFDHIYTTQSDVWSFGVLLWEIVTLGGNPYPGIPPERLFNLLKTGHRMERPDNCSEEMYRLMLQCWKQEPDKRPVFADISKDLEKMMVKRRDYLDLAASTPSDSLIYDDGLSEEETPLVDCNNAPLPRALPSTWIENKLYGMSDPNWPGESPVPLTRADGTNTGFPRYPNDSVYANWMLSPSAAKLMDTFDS
# various kinases [4] = target: various kinases (Homo sapiens, UniProt P49336); details: CDK8/cyclin C
# various kinases [5] = target: various kinases (Homo sapiens, UniProt P53671); details: LIMK2
# various kinases [6] = target: various kinases (Homo sapiens, UniProt P22607, K650M); details: FGFR3 K650M
# various kinases [7] = target: various kinases (Homo sapiens, UniProt P22612); details: kinase PRKACG (PRKAC gamma); LanthaScreen Binding
# various kinases (Homo sapiens, UniProt P22612), sequence (P22612 whole entry): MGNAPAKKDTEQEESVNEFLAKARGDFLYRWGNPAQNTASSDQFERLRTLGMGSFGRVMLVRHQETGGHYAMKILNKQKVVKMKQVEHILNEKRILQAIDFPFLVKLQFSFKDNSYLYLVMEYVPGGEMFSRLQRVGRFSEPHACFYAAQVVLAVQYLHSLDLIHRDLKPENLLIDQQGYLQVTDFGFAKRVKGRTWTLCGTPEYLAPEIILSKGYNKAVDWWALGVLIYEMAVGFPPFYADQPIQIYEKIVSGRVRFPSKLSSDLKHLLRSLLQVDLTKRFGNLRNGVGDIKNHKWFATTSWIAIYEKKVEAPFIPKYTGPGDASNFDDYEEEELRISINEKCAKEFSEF
# various kinases [8] = target: various kinases (Homo sapiens, UniProt Q09013); details: DMPK
# various kinases [9] = target: various kinases (Homo sapiens, UniProt P30530, R499C); details: AXL R499C
# various kinases [10] = target: various kinases (Homo sapiens, UniProt P15056); details: BRAF
# various kinases [11] = target: various kinases (Homo sapiens, UniProt P07949, G691S); details: kinase RET G691S; LanthaScreen Binding
# various kinases (Homo sapiens, UniProt P07949, G691S), sequence (P07949 29-1114 G691S): as the sequence (P07949 29-1114 V804M) above, with G663S, M776V counted along it
# various kinases [12] = target: various kinases (Homo sapiens, UniProt P52564, S207E/T211E); details: MAP2K6 (MKK6) S207E T211E
# various kinases [13] = target: various kinases (Homo sapiens, UniProt P10721, V654A); details: KIT V654A
# various kinases [14] = target: various kinases (Homo sapiens, UniProt Q9H093); details: NUAK2
# various kinases (Homo sapiens, UniProt Q9H093), sequence (Q9H093 whole entry): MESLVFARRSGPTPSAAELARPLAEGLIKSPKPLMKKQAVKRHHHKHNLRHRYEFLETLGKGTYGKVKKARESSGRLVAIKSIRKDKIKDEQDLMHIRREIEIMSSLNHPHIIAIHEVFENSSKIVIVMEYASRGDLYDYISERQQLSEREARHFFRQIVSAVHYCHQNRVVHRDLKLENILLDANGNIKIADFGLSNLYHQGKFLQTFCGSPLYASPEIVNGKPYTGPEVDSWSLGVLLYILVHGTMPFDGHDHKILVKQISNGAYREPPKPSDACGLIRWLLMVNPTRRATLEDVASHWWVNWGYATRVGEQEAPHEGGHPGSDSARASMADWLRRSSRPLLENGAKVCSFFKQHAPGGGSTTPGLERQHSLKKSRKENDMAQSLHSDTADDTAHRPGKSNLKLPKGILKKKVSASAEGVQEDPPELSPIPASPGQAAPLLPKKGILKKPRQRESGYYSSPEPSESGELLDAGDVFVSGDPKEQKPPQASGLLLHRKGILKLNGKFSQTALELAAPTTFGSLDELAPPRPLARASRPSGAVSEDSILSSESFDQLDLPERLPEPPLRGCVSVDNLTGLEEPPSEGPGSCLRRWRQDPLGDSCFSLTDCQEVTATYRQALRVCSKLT
# various kinases [15] = target: T1, various kinases (Homo sapiens, UniProt O94768); details: kinase STK17B (DRAK2); LanthaScreen Binding
# T1 sequence (O94768 1-372): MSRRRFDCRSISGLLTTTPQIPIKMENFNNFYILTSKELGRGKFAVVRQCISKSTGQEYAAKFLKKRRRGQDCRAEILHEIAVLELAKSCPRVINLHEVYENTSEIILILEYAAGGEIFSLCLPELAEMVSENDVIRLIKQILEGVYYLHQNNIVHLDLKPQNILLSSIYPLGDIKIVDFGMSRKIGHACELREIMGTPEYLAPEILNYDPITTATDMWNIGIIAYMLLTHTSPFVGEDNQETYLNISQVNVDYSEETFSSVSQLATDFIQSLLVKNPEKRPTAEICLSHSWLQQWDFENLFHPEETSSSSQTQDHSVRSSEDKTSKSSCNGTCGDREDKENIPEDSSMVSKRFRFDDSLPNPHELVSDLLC
# various kinases [16] = target: various kinases (Homo sapiens, UniProt Q92918); details: MAP4K1 (HPK1)
# various kinases [17] = target: various kinases (Homo sapiens, UniProt P10721, T670E); details: KIT T670E
# various kinases [18] = target: various kinases (Homo sapiens, UniProt Q9NRM7); details: LATS2
# various kinases [19] = target: various kinases (Homo sapiens, UniProt Q8NEV4); details: MYO3A (MYO3 alpha)
# various kinases [20] = target: various kinases (Homo sapiens, UniProt P10721, A829P); details: KIT A829P
# various kinases [21] = target: various kinases (Homo sapiens, UniProt P10721, N822K); details: KIT N822K
# various kinases [22] = target: various kinases (Homo sapiens, UniProt Q13131)
# various kinases (Homo sapiens, UniProt Q13131), sequence (Q13131 whole entry): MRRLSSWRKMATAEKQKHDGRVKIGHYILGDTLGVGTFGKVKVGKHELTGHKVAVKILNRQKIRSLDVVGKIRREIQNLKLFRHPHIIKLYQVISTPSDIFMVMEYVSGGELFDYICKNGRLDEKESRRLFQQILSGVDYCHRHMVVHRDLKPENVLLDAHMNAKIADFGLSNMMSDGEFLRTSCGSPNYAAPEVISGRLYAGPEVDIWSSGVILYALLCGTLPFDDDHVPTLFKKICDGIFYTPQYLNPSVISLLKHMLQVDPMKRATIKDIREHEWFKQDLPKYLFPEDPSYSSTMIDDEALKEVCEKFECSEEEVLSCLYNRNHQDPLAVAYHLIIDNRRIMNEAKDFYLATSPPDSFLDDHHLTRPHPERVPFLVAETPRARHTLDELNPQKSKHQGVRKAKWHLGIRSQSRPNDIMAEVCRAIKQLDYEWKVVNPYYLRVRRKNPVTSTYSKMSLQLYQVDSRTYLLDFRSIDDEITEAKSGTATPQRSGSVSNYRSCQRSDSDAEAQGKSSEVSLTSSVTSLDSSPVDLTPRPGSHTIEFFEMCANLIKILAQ
# various kinases [23] = target: various kinases (Homo sapiens, UniProt Q9UM73, C1156Y); details: ALK C1156Y
# various kinases [24] = target: various kinases (Homo sapiens, UniProt Q9HAZ1); details: CLK4
# various kinases [25] = target: various kinases (Homo sapiens, UniProt Q9H4A3); details: kinase WNK1; LanthaScreen Binding
# various kinases (Homo sapiens, UniProt Q9H4A3), sequence (Q9H4A3 whole entry): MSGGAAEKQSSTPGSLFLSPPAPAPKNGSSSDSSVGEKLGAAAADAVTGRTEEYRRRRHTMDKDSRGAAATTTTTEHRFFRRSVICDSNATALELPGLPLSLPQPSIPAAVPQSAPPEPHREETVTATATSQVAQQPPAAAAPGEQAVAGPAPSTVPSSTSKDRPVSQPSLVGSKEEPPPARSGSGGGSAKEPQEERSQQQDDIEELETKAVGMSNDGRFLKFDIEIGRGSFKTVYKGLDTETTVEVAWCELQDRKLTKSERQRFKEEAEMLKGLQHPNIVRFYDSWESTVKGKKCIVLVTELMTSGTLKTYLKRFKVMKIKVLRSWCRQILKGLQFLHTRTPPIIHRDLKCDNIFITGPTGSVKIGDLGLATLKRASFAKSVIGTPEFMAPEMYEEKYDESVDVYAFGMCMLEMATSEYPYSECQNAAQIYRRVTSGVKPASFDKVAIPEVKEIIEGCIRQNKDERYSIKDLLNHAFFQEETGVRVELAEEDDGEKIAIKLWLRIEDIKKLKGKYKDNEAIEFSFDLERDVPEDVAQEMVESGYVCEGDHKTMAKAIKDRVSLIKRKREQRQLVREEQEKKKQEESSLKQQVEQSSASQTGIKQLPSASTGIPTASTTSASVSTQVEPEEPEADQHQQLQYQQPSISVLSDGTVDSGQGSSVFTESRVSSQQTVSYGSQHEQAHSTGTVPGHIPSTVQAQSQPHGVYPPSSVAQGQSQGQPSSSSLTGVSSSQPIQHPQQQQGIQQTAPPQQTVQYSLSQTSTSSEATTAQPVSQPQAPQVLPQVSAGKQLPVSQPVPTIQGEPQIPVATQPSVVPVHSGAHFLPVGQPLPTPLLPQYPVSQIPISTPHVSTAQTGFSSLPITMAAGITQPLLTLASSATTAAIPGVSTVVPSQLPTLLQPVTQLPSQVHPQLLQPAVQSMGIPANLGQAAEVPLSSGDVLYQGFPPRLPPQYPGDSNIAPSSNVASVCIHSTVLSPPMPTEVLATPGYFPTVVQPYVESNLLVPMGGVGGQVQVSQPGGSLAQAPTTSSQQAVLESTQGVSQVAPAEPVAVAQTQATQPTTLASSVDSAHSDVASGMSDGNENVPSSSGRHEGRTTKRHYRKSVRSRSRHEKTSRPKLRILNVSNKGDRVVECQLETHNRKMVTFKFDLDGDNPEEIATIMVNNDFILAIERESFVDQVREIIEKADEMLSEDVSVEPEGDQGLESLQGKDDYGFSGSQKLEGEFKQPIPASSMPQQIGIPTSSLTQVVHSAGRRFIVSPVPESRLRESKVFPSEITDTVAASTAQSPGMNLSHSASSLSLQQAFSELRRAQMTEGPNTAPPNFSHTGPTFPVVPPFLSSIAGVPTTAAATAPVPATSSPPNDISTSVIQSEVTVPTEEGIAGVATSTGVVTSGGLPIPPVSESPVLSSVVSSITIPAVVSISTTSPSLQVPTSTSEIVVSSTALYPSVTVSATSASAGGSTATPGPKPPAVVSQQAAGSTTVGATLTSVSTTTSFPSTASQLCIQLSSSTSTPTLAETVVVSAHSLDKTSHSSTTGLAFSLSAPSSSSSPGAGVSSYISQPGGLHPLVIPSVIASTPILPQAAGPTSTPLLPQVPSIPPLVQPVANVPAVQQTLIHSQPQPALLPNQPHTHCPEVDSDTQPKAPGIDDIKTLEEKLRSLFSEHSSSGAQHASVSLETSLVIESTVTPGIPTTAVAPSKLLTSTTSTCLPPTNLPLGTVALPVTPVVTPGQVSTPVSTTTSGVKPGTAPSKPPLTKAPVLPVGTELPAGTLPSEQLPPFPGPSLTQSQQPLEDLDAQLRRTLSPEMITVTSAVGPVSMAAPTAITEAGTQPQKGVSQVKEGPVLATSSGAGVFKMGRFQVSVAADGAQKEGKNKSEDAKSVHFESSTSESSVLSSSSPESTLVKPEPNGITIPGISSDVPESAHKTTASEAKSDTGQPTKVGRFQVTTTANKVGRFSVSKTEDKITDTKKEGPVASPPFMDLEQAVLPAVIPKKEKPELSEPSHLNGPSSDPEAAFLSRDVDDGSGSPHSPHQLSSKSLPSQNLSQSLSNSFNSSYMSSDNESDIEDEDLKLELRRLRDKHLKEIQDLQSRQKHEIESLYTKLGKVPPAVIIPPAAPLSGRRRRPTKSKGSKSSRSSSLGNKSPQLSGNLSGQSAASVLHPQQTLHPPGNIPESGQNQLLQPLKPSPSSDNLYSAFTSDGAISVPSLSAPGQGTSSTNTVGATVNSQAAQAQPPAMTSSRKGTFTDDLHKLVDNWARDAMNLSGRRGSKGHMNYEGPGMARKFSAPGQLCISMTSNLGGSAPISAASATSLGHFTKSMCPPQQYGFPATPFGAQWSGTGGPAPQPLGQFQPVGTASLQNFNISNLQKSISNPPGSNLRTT
# various kinases [26] = target: T2, various kinases (Homo sapiens, UniProt Q6PHR2); details: kinase ULK3; LanthaScreen Binding
# T2 sequence (Q6PHR2 1-472): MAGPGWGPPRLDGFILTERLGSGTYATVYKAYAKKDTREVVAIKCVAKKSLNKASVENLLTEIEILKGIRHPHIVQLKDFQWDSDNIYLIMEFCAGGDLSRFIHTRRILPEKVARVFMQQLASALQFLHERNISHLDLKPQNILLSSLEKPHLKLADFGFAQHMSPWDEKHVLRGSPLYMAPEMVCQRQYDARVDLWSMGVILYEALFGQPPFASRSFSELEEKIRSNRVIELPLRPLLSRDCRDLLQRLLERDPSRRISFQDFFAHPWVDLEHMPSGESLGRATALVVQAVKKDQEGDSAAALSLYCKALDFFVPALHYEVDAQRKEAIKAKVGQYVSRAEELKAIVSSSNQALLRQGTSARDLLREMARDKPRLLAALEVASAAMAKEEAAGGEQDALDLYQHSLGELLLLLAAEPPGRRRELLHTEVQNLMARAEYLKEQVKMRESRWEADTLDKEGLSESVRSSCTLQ
structure (smiles),measurement,setting,value
COc1ccc2c(c1)[C@]1(C[C@H]1c1ccc3c(/C=C/c4ccc(CN5C[C@@H](C)O[C@@H](C)C5)cc4)n[nH]c3c1)C(=O)N2 [CFI-400945],% Inhibition,various kinases [1],55% and 57%
same,% Inhibition,various kinases [2],-1% and 4%
same,% Inhibition Average,various kinases [3],34%
same,% Inhibition Duplicate #1,various kinases [3],29%
same,% Inhibition Duplicate #2,various kinases [3],39%
same,% Inhibition,various kinases [4],17% and 9%
same,% Inhibition,various kinases [5],4% and 0%
same,% Inhibition,various kinases [6],44% and 48%
same,% Inhibition Average,various kinases [7],18%
same,% Inhibition Duplicate #1,various kinases [7],25%
same,% Inhibition Duplicate #2,various kinases [7],11%
same,% Inhibition,various kinases [8],1% and -3%
same,% Inhibition,various kinases [9],11% and 12%
same,% Inhibition,various kinases [10],0% and 6%
same,% Inhibition Average,various kinases [11],-1%
same,% Inhibition Duplicate #1,various kinases [11],-11%
same,% Inhibition Duplicate #2,various kinases [11],9%
same,% Inhibition,various kinases [12],9% and 8%
same,% Inhibition,various kinases [13],6%
same,% Inhibition,various kinases [14],44% and 36%
same,% Inhibition Average,various kinases [15],18%
same,% Inhibition Duplicate #1,various kinases [15],21%
same,% Inhibition Duplicate #2,various kinases [15],16%
same,% Inhibition,various kinases [16],45% and 35%
same,% Inhibition,various kinases [17],9% and 6%
same,% Inhibition,various kinases [18],16% and 14%
same,% Inhibition,various kinases [19],8%
same,% Inhibition,various kinases [20],0% and 7%
same,% Inhibition,various kinases [21],6% and 3%
same,% Inhibition,various kinases [22]; AMPK (A1/B1/G2),13% and 9%
same,% Inhibition,various kinases [22]; AMPK (A1/B1/G3),10% and 15%
same,% Inhibition,various kinases [22]; AMPK (A1/B2/G1),14% and 13%
same,% Inhibition,various kinases [23],47% and 51%
same,% Inhibition,various kinases [24],1% and -2%
same,% Inhibition Average,various kinases [25],11%
same,% Inhibition Duplicate #1,various kinases [25],14%
same,% Inhibition Duplicate #2,various kinases [25],8%
same,% Inhibition Average,various kinases [26],0%
same,% Inhibition Duplicate #1,various kinases [26],-4%
same,% Inhibition Duplicate #2,various kinases [26],3%
